Among the data in patent publication US11485736B2 (KSQ Therapeutics, Inc., priority 2018, dated 2022) are solubility and half-life values, retold here.

The solubility is how much of the substance goes into solution per volume.

The nature of series [1]: ADME solubility determination at pH 2.0 and pH 7.4. The format is physicochemical. To be noted: aqueous buffer, thermodynamic from solid, LC-MS/MS. In a few lines: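 Dried residues of 10 mM DMSO stocks were shaken in PBS pH 7.4 or pH 2.0 for 24 hours at 25° C. and 1,100 rpm. After centrifugation, supernatants were quantified by LC-MS/MS against a standard of known concentration, applying a dilution factor.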

Series [2] can be described thus: Liver microsomal stability, rat liver microsomes. The format is in vitro ADME. To be noted: 1 μM compound, NADPH, read-out: t1/2 (min) in RLM. In a few lines:
(§1)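 Compound (1 μM final) was incubated with prewarmed human or rat liver microsomes (1 mg/mL in 100 mM phosphate master mix) plus NADPH; aliquots at 0.5–30 minutes were quenched in cold acetonitrile and quantified by LC-MS/MS. Half-life came from the ln(% remaining) versus time slope, converted to CLint (μL/min/mg prot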

The nature of series [3]: Liver microsomal stability, human liver microsomes. It counts as in vitro ADME. To be noted: 1 μM compound, NADPH, read-out: t1/2 (min) in HLM. In a few lines:
as §1

[4] abbreviates: PBS pH 2.0, shaken at 25° C. for 24 hours, read-out: Solubility at pH 2.0.
[5] abbreviates: PBS pH 7.4, shaken at 25° C. for 24 hours, read-out: Solubility at pH 7.4.

The structures appear in SMILES notation. Where two headings read alike, the source gives them in different places.

With `CCn1cc(C(F)(F)F)nc1-c1ccc(Cn2nc(SCc3ccc(OC)cc3)c3cnc(-c4c(OC)ncnc4C4CC4)nc32)cc1` [Example 192, 6-(4-cyclopropyl-6-methoxypyrimidin-5-yl)-1-(4-(1-ethyl-4-(trifluoromethyl)-1H-imidazol-2-yl)benzyl)-3-((4-methoxybenzyl)thio)-1H-pyrazolo[3,4-d]pyrimidine], the solubility at 24 h in series [1] (setting [4]) and in series [1] (setting [5]) was < 10 µM throughout. Also, the half-life at 1 μM in series [2] and in series [3] was < 25 min each time.

Turning to `COCC(C)n1cc(C(F)(F)F)nc1-c1ccc(Cn2ncc3cnc(-c4c(OC)ncnc4C4CC4)nc32)cc1` (stereo not shown) [Example 150, 6-(4-cyclopropyl-6-methoxypyrimidin-5-yl)-1-(4-(1-(1-methoxypropan-2-yl)-4-(trifluoromethyl)-1H-imidazol-2-yl)benzyl)-1H-pyrazolo[3,4-d]pyrimidine], the solubility at 24 h in series [1] (setting [4]) and in series [1] (setting [5]) was > 10 µM throughout. The half-life at 1 μM in series [2] and in series [3] was < 25 min in each case.

Consider `CCn1cc(C(F)(F)F)nc1-c1ccc(Cn2ncc3cnc(-c4c(OC)ncnc4C4CC4)nc32)cn1` [Example 75], for which the solubility at 24 h in series [1] (setting [4]) and in series [1] (setting [5]) was < 10 µM each time. Also, the half-life at 1 μM in series [2] and in series [3] was > 25 min in each case.

Regarding `COc1cccc(OC)c1-c1ncc2cnn(Cc3ccc(-c4nc(C(F)(F)F)cn4C)cc3)c2n1` [Example 4, 6-(2,6-dimethoxyphenyl)-1-(4-(1-methyl-4-(trifluoromethyl)-1H-imidazol-2-yl)benzyl)-1H-pyrazolo[3,4-d]pyrimidine], the figures for the solubility at 24 h in series [1] (setting [4]) and in series [1] (setting [5]) were > 10 µM and < 10 µM, respectively. For the same molecule, the half-life at 1 μM in series [2] and in series [3] was < 25 min each time.

For `CCn1cc(C(F)(F)F)nc1-c1ccc(Cn2nc(SC)c3cnc(-c4c(OC)ncnc4C4CC4)nc32)cc1` [Example 190, 6-(4-cyclopropyl-6-methoxypyrimidin-5-yl)-1-(4-(1-ethyl-4-(trifluoromethyl)-1H-imidazol-2-yl)benzyl)-3-(methylthio)-1H-pyrazolo[3,4-d]pyrimidine], the solubility at 24 h in series [1] (setting [4]) and in series [1] (setting [5]) was < 10 µM in each case. The half-life at 1 μM in series [2] and in series [3] was < 25 min throughout.

For the molecule `COc1ncnc(C2CC2)c1-c1ncc2cnn(Cc3ccc(-c4cn(C)c(C(F)(F)F)n4)cc3)c2n1` [Example 13], the solubility at 24 h in series [1] (setting [4]) and in series [1] (setting [5]) was < 10 µM each time. Also, the half-life at 1 μM in series [2] and in series [3] was > 25 min each time.

In the case of `CC(C)c1ccccc1-c1ncc2ncn(Cc3ccc(-c4nc(C(F)(F)F)cn4C)cc3)c2n1` [Example 202, 2-(2-Isopropylphenyl)-9-(4-(1-methyl-4-(trifluoromethyl)-1H-imidazol-2-yl)benzyl)-9H-purine], the solubility at 24 h in series [1] (setting [4]) is > 10 µM; in series [1] (setting [5]), < 10 µM. Further, the half-life at 1 μM in series [2] and in series [3] was < 25 min each time.

Regarding `CCS(=O)(=O)c1ccccc1-c1ncc2cnn(Cc3ccc(-c4nc(C(F)(F)F)cn4C)cc3)c2n1` [Example 7, 6-(2-(ethylsulfonyl)phenyl)-1-(4-(1-methyl-4-(trifluoromethyl)-1H-imidazol-2-yl)benzyl)-1H-pyrazolo[3,4-d]pyrimidine], the solubility at 24 h in series [1] (setting [4]) and in series [1] (setting [5]) was < 10 µM throughout. Moreover, the half-life at 1 μM was < 25 min in series [2] and > 25 min in series [3].

In the case of `COCc1nc2cnc(-c3c(OC)ncnc3C3CC3)nc2n1Cc1ccc(-c2nc(C(F)(F)F)cn2C(C)C)cc1` [Example 207], the solubility at 24 h in series [1] (setting [4]) and in series [1] (setting [5]) was > 10 µM in each case. The half-life at 1 μM in series [2] is > 25 min; in series [3], < 25 min.

Turning to `COc1ncnc(C2CC2)c1-c1ncc2ccn(Cc3ccc(-c4nc(C(F)(F)F)cn4C)cc3)c2n1` [Example 201, 2-(4-cyclopropyl-6-methoxypyrimidin-5-yl)-7-(4-(1-methyl-4-(trifluoromethyl)-1H-imidazol-2-yl)benzyl)-7H-pyrrolo[2,3-d]pyrimidine], the solubility at 24 h in series [1] (setting [4]) was > 10 µM; in series [1] (setting [5]) it was < 10 µM. In addition, the half-life at 1 μM in series [2] and in series [3] was < 25 min throughout.

For the molecule `COc1ncnc(C2CC2)c1-c1ncc2cnn(Cc3ccc(-c4nc(C(F)(F)F)cn4C)cc3F)c2n1` [Example 20], the solubility at 24 h in series [1] (setting [4]) and in series [1] (setting [5]) was < 10 µM each time. Moreover, the half-life at 1 μM in series [2] and in series [3] was > 25 min in each case.

As to `COc1ncnc(OC)c1-c1ncc2cnn(Cc3ccc(-c4nc(C(F)(F)F)cn4C(C)C)cc3)c2n1` [Example 90], the solubility at 24 h in series [1] (setting [4]) and in series [1] (setting [5]) was > 10 µM throughout. In addition, the half-life at 1 μM in series [2] and in series [3] was > 25 min in each case.

On to `COc1ncnc(C2CC2)c1-c1ncc2cnn(Cc3ccc(-n4nc(C#N)cc4OC)cc3)c2n1` [Example 70], for which the solubility at 24 h in series [1] (setting [4]) and in series [1] (setting [5]) was < 10 µM throughout. The half-life at 1 μM in series [2] was < 25 min; in series [3], > 25 min.

Take `CCn1c(-c2ccc(Cn3ncc4cnc(-c5c(OC)ncnc5C5CC5)nc43)cc2)nc(C(F)(F)F)c1C` [Example 167, 6-(4-cyclopropyl-6-methoxypyrimidin-5-yl)-1-(4-(1-ethyl-5-methyl-4-(trifluoromethyl)-1H-imidazol-2-yl)benzyl)-1H-pyrazolo[3,4-d]pyrimidine]: the solubility at 24 h in series [1] (setting [4]) was > 10 µM; in series [1] (setting [5]), < 10 µM. Besides, the half-life at 1 μM in series [2] and in series [3] was < 25 min in each case.

For the molecule `CCOc1ncnc(OC)c1-c1ncc2cnn(Cc3ccc(-c4nc(C(F)(F)F)cn4CC)cc3)c2n1` [Example 113], the solubility at 24 h in series [1] (setting [4]) and in series [1] (setting [5]) was > 10 µM each time. Further, the half-life at 1 μM was < 25 min in series [2] and > 25 min in series [3].

Regarding `CCn1cc(C(F)(F)F)nc1-c1ccc(Cn2ncc3c(OC)nc(-c4c(OC)ncnc4C4CC4)nc32)cc1` [Example 52], the solubility at 24 h in series [1] (setting [4]) and in series [1] (setting [5]) was < 10 µM each time. Further, the half-life at 1 μM in series [2] was < 25 min; in series [3], > 25 min.

In the case of `COc1ncnc(C2CC2)c1-c1ncc2cnn(Cc3ccc(-n4nc(C(F)(F)F)cc4SC)cc3)c2n1` [Example 38], the solubility at 24 h in series [1] (setting [4]) and in series [1] (setting [5]) was < 10 µM throughout. Moreover, the half-life at 1 μM in series [2] and in series [3] was < 25 min each time.

Consider `CCn1cc(C(F)(F)F)nc1-c1ccc(Cn2nc(N3CCC3)c3cnc(-c4c(OC)ncnc4C4CC4)nc32)cc1` [Example 186, 3-(azetidin-1-yl)-6-(4-cyclopropyl-6-methoxypyrimidin-5-yl)-1-(4-(1-ethyl-4-(trifluoromethyl)-1H-imidazol-2-yl)benzyl)-1H-pyrazolo[3,4-d]pyrimidine], for which the solubility at 24 h in series [1] (setting [4]) and in series [1] (setting [5]) was > 10 µM in each case. In addition, the half-life at 1 μM in series [2] and in series [3] was < 25 min throughout.

As to `CCn1cc(C(F)(F)F)nc1-c1ccc(Cn2ncc3cnc(-c4c(C5CC5)cnn4CC)nc32)cc1` [Example 68], the solubility at 24 h in series [1] (setting [4]) and in series [1] (setting [5]) was < 10 µM throughout. The half-life at 1 μM in series [2] and in series [3] was < 25 min in each case.

As for `CCOc1cc(C(F)(F)F)nn1-c1ccc(Cn2ncc3cnc(-c4c(OC)ncnc4C4CC4)nc32)cc1` [Example 76], the solubility at 24 h in series [1] (setting [4]) and in series [1] (setting [5]) was < 10 µM in each case. Besides, the half-life at 1 μM in series [2] and in series [3] was > 25 min throughout.

As for `CCn1cc(C(F)(F)F)nc1-c1ccc(Cn2ncc3cnc(-c4c(OC5CCC5)ncnc4C4CC4)nc32)cc1` [Example 64], the solubility at 24 h in series [1] (setting [4]) and in series [1] (setting [5]) was < 10 µM in each case. The half-life at 1 μM in series [2] and in series [3] was < 25 min in each case.

In the case of `COc1ncnc(C2CC2)c1-c1ncc2cnn([C@@H](C)c3ccc(-c4nc(C(F)(F)F)cn4C(C)C)cc3)c2n1` [Example 97], the solubility at 24 h was > 10 µM in series [1] (setting [4]) and < 10 µM in series [1] (setting [5]). For the same molecule, the half-life at 1 μM in series [2] and in series [3] was > 25 min in each case.

In the case of `CCn1cc(C(F)(F)F)nc1-c1ccc(Cn2ncc3cnc(-c4c(OC)ncnc4C4CC4)nc32)cc1` [Example 51], the solubility at 24 h in series [1] (setting [4]) is > 10 µM; in series [1] (setting [5]), < 10 µM. In addition, the half-life at 1 μM in series [2] and in series [3] was > 25 min throughout.

As to `COc1ncnc(C2CC2)c1-c1ncc2cnn(Cc3ccc(-n4nc(C(F)(F)F)cc4C(C)C)cc3)c2n1` [Example 29], the solubility at 24 h in series [1] (setting [4]) and in series [1] (setting [5]) was < 10 µM throughout. The half-life at 1 μM in series [2] and in series [3] was > 25 min each time.

With `CC(C)c1ncccc1-c1ncc2cnn(Cc3ccc(-c4nc(C(F)(F)F)cn4C)cc3)c2n1` [Example 9, 6-(2-isopropylpyridin-3-yl)-1-(4-(1-methyl-4-(trifluoromethyl)-1H-imidazol-2-yl)benzyl)-1H-pyrazolo[3,4-d]pyrimidine], the solubility at 24 h in series [1] (setting [4]) and in series [1] (setting [5]) was > 10 µM each time. Moreover, the half-life at 1 μM in series [2] and in series [3] was < 25 min each time.
